Measurements: article PMC6934184, “Selective DNA-PKcs inhibition extends the therapeutic index of localized radiotherapy and chemotherapy” (The Journal of Clinical Investigation, 2019)

Target: T1, CDK1/cyclin A2 (Homo sapiens, UniProt P06493)
T1 construct: purchased Thermo Fisher Scientific (Life Technologies) SelectScreen
Assay: SelectScreen LanthaScreen
Type: binding
Details: 1 µM
Procedure, shortened: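 NU5455 was profiled across the SelectScreen Broad panel of kinase activity and binding assays. Z'LYTE reactions such as CSF1R ran at apparent Km ATP, while the Adapta CAMK1 assay used ATP listed as 10. Values are given as percent.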

T1 sequence (P06493 whole entry): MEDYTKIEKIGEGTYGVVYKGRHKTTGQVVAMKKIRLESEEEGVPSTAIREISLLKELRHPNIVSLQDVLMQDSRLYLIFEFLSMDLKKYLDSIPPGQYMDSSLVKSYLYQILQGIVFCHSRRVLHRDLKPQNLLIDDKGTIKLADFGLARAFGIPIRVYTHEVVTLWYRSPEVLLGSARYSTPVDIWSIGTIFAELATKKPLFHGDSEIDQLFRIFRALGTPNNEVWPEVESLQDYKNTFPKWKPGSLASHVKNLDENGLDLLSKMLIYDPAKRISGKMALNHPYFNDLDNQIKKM
T1 sequence (P20248 whole entry partner): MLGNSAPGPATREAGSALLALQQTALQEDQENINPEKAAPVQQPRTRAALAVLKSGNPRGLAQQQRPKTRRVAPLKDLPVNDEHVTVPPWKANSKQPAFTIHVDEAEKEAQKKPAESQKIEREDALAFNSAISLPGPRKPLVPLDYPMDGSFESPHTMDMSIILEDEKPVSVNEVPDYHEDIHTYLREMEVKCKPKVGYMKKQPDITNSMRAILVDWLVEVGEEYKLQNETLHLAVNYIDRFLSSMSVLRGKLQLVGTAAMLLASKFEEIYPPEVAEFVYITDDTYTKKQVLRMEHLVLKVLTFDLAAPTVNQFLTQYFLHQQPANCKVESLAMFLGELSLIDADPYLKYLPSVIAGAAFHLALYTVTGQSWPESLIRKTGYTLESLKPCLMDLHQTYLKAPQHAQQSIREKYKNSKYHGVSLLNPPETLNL

## CN(C(=O)CN1CCOCC1)c1ccc2sc3c(-c4cccc5c(=O)cc(N6CC7CCC(C6)O7)oc45)cccc3c2c1 [NU5455]
  % displacement: 3.3%
